Experimental data reported in ChEMBL document CHEMBL5665443, “Enzyme Inhibitor Single Concentration assay results for EUbOPEN Chemogenomics Library” (2024).

Tests used:
[1] = molecular target: Endonuclease 8-like 1 (Homo sapiens) (UniProt Q96FI4); settings: Compound Concentration 10.0 uM;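 further: fluorescence at 594 nm from quenched duplex DNA oligonucleotides released by NEIL1 cleavage and strand separation, reported as reduction of this enzyme activity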
Description: Inhibition of NEIL1 by quantifying inhibition of NEIL1-mediated cleavage and dissociation of quenched duplex DNA oligonucleotides, measured as fluorescence at 594 nm.

[2] = molecular target: T1, Endonuclease 8-like 2 (Homo sapiens) (UniProt Q969S2); settings: Compound Concentration 10.0 uM;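 further: fluorescence at 594 nm reports NEIL2 cutting and release of a quenched double-stranded DNA oligo substrate, reduced signal read as inhibition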
T1 sequence (whole entry): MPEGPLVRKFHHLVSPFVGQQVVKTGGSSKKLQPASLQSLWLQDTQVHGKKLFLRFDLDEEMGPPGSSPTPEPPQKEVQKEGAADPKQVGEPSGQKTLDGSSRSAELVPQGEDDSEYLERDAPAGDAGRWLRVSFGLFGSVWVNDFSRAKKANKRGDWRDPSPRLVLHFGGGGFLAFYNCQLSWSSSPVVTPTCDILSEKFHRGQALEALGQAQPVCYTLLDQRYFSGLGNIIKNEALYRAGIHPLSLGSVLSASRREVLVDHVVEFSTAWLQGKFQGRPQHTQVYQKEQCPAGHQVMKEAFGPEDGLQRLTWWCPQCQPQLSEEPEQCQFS
Description: Inhibition of NEIL2 by quantifying inhibition of NEIL2-mediated cleavage and dissociation of quenched duplex DNA oligonucleotides, measured as fluorescence at 594 nm.

[3] = molecular target: T2, Single-strand selective monofunctional uracil DNA glycosylase (Homo sapiens) (UniProt Q53HV7); settings: Compound Concentration 10.0 uM, Hit No;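 further: enzymatic SMUG1 assay coupled with APE1, reading fluorescence at 594 nm released when a quenched double-stranded DNA oligonucleotide substrate is cleaved and separated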
T2 sequence (whole entry): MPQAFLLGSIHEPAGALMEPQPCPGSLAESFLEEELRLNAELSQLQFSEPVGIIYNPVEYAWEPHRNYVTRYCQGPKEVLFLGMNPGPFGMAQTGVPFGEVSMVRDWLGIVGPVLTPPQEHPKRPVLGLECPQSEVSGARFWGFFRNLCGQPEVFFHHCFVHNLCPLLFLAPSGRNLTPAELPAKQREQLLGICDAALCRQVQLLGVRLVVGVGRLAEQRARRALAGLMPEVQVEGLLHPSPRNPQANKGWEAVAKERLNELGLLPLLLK
Description: Inhibition of SMUG1 by quantifying inhibition of SMUG1-mediated cleavage and dissociation of quenched duplex DNA oligonucleotides, measured as fluorescence at 594 nm. To generate a functional strand incision and increase turn-over this assay is coupled to APE1.

[4] = molecular target: G/T mismatch-specific thymine DNA glycosylase (Homo sapiens) (UniProt Q13569); settings: Compound Concentration 10.0 uM, Hit No;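 further: human TDG cleavage of quenched duplex DNA oligonucleotides coupled to APE1, strand release read as fluorescence at 594 nm, inhibition of TDG activity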
Chain of G/T mismatch-specific thymine DNA glycosylase (Homo sapiens) (Q13569 whole entry): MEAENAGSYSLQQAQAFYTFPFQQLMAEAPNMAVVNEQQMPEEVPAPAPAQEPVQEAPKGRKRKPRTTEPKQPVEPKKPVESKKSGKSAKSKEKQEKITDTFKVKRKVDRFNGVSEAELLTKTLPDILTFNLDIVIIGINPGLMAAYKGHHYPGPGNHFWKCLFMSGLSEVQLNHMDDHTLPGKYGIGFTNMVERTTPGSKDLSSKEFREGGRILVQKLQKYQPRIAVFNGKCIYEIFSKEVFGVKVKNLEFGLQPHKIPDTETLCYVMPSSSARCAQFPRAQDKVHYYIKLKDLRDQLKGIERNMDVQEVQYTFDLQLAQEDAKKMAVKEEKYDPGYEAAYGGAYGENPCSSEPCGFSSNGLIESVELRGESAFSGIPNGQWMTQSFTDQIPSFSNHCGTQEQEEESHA
Description: Inhibition of TDG by quantifying inhibition of TDG-mediated cleavage and dissociation of quenched duplex DNA oligonucleotides, measured as fluorescence at 594 nm. To generate a functional strand incision and increase turn-over this assay is coupled to APE1.

[5] = molecular target: Uracil-DNA glycosylase (Homo sapiens) (UniProt P13051); settings: Compound Concentration 10.0 uM, Hit No;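 further: UNG excision on a quenched double-stranded DNA oligo probe, with APE1 added for strand incision and turnover, read as fluorescence at 594 nm as strands separate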
Chain of Uracil-DNA glycosylase (Homo sapiens) (P13051 whole entry): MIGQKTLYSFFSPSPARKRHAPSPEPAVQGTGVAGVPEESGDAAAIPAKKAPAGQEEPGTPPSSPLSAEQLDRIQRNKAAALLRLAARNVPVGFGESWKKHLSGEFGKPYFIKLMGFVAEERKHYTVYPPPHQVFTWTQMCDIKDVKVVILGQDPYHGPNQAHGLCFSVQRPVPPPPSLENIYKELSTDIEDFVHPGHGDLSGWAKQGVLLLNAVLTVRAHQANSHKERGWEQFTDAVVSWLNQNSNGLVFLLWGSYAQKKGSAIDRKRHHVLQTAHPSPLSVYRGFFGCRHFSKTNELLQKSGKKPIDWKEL
Description: Inhibition of UNG by quantifying inhibition of UNG-mediated cleavage and dissociation of quenched duplex DNA oligonucleotides, measured as fluorescence at 594 nm. To generate a functional strand incision and increase turn-over this assay is coupled to APE1.

[6] = molecular target: T3, Endonuclease III-like protein 1 (Homo sapiens) (UniProt P78549); settings: Compound Concentration 10.0 uM;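 further: enzyme assay tracking NTHL1 cutting and release of a quenched double-stranded DNA oligo substrate, read as fluorescence at 594 nm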
T3 sequence (whole entry): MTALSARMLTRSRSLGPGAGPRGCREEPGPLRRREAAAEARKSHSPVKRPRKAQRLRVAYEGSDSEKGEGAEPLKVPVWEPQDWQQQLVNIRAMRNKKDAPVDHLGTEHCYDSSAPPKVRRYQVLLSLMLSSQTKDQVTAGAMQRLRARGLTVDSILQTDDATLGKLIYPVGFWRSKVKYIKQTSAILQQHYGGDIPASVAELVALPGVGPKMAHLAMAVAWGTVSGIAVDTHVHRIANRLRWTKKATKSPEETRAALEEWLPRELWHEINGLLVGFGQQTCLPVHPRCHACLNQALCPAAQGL
Description: Inhibition of NTHL1 by quantifying inhibition of NTHL1-mediated cleavage and dissociation of quenched duplex DNA oligonucleotides, measured as fluorescence at 594 nm.

[7] = molecular target: T4, Adenine DNA glycosylase (Homo sapiens) (UniProt Q9UIF7); settings: Compound Concentration 10.0 uM, Hit No;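 further: human MUTYH activity read as 594 nm fluorescence from cleavage and release of a quenched DNA duplex, coupled with APE1 for strand incision, lower signal meaning inhibition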
T4 sequence (whole entry): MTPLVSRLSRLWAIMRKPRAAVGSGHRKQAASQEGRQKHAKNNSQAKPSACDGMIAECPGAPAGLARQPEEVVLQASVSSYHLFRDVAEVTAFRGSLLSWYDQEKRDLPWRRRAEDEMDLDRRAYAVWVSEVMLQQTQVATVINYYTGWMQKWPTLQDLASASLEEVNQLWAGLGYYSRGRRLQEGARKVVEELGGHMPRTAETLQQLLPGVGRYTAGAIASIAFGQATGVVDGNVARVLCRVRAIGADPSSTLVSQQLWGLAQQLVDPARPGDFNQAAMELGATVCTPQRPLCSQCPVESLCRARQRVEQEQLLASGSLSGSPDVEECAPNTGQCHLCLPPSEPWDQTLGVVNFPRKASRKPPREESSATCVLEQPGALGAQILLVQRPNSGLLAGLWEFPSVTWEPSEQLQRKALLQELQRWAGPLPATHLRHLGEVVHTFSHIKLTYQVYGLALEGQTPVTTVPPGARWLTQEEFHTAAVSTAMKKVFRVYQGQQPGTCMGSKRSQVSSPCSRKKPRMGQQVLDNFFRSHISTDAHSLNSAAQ
Description: Inhibition of MUTYH by quantifying inhibition of MUTYH-mediated cleavage and dissociation of quenched duplex DNA oligonucleotides, measured as fluorescence at 594 nm. To generate a functional strand incision and increase turn-over this assay is coupled to APE1.

[8] = molecular target: Methyl-CpG-binding domain protein 4 (Homo sapiens) (UniProt O95243); settings: Compound Concentration 10.0 uM, Hit No;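 further: MBD4 activity read as fluorescence at 594 nm from cleavage and release of a quenched duplex DNA oligonucleotide, with APE1 coupled to incise the strand and raise turnover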
Chain of Methyl-CpG-binding domain protein 4 (Homo sapiens) (O95243 whole entry, the tested form may be a part): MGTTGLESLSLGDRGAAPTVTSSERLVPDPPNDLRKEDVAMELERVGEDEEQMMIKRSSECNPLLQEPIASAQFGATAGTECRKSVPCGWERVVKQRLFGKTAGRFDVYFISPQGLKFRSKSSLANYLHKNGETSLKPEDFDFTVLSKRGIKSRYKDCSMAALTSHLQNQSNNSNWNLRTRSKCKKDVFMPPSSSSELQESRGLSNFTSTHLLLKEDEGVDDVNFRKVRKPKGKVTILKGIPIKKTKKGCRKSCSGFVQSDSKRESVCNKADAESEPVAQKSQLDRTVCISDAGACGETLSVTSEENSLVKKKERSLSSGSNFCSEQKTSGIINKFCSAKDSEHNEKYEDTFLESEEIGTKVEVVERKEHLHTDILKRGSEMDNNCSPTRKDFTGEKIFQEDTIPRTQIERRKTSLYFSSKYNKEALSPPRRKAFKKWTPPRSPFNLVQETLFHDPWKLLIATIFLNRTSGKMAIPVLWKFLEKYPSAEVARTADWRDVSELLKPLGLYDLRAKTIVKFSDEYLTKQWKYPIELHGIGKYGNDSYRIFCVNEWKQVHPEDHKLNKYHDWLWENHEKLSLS
Description: Inhibition of MBD4 by quantifying inhibition of MBD4-mediated cleavage and dissociation of quenched duplex DNA oligonucleotides, measured as fluorescence at 594 nm. To generate a functional strand incision and increase turn-over this assay is coupled to APE1.

[9] = molecular target: DNA-3-methyladenine glycosylase (Homo sapiens) (UniProt P29372); settings: Compound Concentration 10.0 uM, Hit No;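 further: enzyme assay where MPG cuts a quenched duplex DNA oligonucleotide probe, paired with APE1 for strand incision and turnover, read as fluorescence at 594 nm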
Chain of DNA-3-methyladenine glycosylase (Homo sapiens) (P29372 whole entry): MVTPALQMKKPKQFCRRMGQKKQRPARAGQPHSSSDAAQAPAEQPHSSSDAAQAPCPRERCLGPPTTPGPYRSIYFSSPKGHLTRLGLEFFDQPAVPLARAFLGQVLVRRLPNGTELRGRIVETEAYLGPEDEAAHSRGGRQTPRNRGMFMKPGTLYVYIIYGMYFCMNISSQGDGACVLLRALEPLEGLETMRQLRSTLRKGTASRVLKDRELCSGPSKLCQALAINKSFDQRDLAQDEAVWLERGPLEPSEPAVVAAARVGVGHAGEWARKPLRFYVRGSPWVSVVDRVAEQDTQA
Description: Inhibition of MPG by quantifying inhibition of MPG-mediated cleavage and dissociation of quenched duplex DNA oligonucleotides, measured as fluorescence at 594 nm. To generate a functional strand incision and increase turn-over this assay is coupled to APE1.

[10] = molecular target: N-glycosylase/DNA lyase (Homo sapiens) (UniProt O15527); settings: Compound Concentration 10.0 uM;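 further: OGG1 cleavage of a quenched duplex DNA oligonucleotide, coupled to APE1 for strand incision, read as fluorescence at 594 nm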
Chain of N-glycosylase/DNA lyase (Homo sapiens) (O15527 whole entry): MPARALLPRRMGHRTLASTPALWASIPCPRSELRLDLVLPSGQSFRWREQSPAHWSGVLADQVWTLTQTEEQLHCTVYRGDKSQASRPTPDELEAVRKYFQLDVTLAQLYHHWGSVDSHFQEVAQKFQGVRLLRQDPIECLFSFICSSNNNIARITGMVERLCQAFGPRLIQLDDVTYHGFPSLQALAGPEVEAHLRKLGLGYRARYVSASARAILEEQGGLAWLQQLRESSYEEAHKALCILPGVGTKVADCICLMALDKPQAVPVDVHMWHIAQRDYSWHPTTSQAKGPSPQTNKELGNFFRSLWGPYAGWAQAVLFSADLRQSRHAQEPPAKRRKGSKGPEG
Description: Inhibition of OGG1 by quantifying inhibition of OGG1-mediated cleavage and dissociation of quenched duplex DNA oligonucleotides, measured as fluorescence at 594 nm. To generate a functional strand incision and increase turn-over this assay is coupled to APE1.

Chain of Endonuclease 8-like 1 (Homo sapiens) (Q96FI4 whole entry): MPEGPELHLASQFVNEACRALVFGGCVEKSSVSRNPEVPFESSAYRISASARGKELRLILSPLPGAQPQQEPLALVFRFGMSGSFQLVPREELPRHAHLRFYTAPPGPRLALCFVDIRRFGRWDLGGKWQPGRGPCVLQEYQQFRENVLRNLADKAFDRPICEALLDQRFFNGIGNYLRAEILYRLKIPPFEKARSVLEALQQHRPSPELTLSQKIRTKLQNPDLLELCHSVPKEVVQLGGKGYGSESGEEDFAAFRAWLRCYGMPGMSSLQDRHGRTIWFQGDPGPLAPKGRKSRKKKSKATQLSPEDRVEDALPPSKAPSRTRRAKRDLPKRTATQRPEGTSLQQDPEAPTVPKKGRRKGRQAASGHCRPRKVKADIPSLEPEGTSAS

Compound `N#Cc1ccc(NC(=O)Nc2ccccc2Br)c2nn[nH]c12` has an inhibition ([1]; Hit No) of 0.686%, an inhibition ([2]; Hit No) of 1.51% and an inhibition [3] of 7.57%. It also gave an inhibition [4] of 26.3%, an inhibition [5] of -8.36% and an inhibition ([6]; Hit No) of 9.25%. For the same compound, the inhibition [7] was 35.7%, the inhibition [8] was 21% and the inhibition [9] was -2.94%. It also gave an inhibition ([10]; Hit No) of -1.34%.
Work on `COc1ccc(/C=C/CCCCOc2ccc(C(=O)c3cccc(C(=O)O)c3)cc2CCC(=O)O)cc1` yielded an inhibition ([1]; Hit No) of -0.204%, an inhibition ([2]; Hit No) of 15.7% and an inhibition [3] of 12.1%. It also gave an inhibition [4] of 43.2%, an inhibition [5] of -7.57% and an inhibition ([6]; Hit No) of 2.66%. It also gave an inhibition [7] of 28.6%, an inhibition [8] of 49.9% and an inhibition [9] of 15.9%. For the same compound, the inhibition ([10]; Hit Yes) was 42.4%.
`NC(=O)c1cc(-c2ccc(S(=O)(=O)[C@H]3CC[C@H](Nc4ccc(C(F)(F)F)cn4)CC3)cc2)ccn1` was tested, and the inhibition ([1]; Hit No) was 11%, the inhibition ([2]; Hit No) was 9.33% and the inhibition [3] was 12.2%. For the same compound, the inhibition [4] was 8.07%, the inhibition [5] was 4.02% and the inhibition ([6]; Hit No) was 17.1%. The inhibition [7] was 25.9%, the inhibition [8] was 10.9% and the inhibition [9] was -6.62%. It also gave an inhibition ([10]; Hit No) of -3%.
Work on `CNC1(C)C2CCC(C2)C1(C)C` (stereo not given) yielded an inhibition ([1]; Hit No) of -4.14%, an inhibition ([2]; Hit No) of -4.94% and an inhibition [3] of 1.51%. The inhibition [4] was 10.2%, the inhibition [5] was -5.36% and the inhibition ([6]; Hit No) was -2.73%. The inhibition [7] was -4.75%, the inhibition [8] was -0.892% and the inhibition [9] was 6.27%. The inhibition ([10]; Hit No) was -5.59%.
With `O=C(NCC12CC3CC(CC(C3)C1)C2)c1ccccc1Cl` the inhibition ([1]; Hit No) was 11.9%, the inhibition ([2]; Hit No) was -6.46% and the inhibition [3] was -1.71%. For the same compound, the inhibition [4] was 10.4%, the inhibition [5] was -0.487% and the inhibition ([6]; Hit No) was 1.39%. The inhibition [7] was 21.2%, the inhibition [8] was 30.1% and the inhibition [9] was 21.7%. For the same compound, the inhibition ([10]; Hit No) was -1.14%.
`COc1ccc(-c2csc(NC(=O)[C@H]3CCCCN3S(=O)(=O)c3ccc(C)cc3)n2)cc1` was tested, and the inhibition ([1]; Hit No) was 4.6%, the inhibition ([2]; Hit No) was 3.47% and the inhibition [3] was 12.1%. For the same compound, the inhibition [4] was 5.87%, the inhibition [5] was -6.47% and the inhibition ([6]; Hit No) was 22%. The inhibition [7] was 11.1%, the inhibition [8] was 10.3% and the inhibition [9] was 12%. The inhibition ([10]; Hit No) was -5.94%.
Compound `Cc1nn(C)c2nc(NNC(=O)Nc3cc(Cl)nc(Cl)c3)cc(C(C)C)c12` has an inhibition ([1]; Hit No) of -1.83%, an inhibition ([2]; Hit No) of 7.5% and an inhibition [3] of 4.42%. The inhibition [4] was 16.6%, the inhibition [5] was -4.71% and the inhibition ([6]; Hit No) was 4.12%. For the same compound, the inhibition [7] was 28.9%, the inhibition [8] was -2.58% and the inhibition [9] was -8%. It also gave an inhibition ([10]; Hit No) of -2.44%.
In the case of `Cc1ccc2nc(NCCN)c3ncc(C)n3c2c1`, the inhibition ([1]; Hit Yes) was 28.9%, the inhibition ([2]; Hit Yes) was 47.1% and the inhibition [3] was 44.2%. It also gave an inhibition [4] of 67.6%, an inhibition [5] of 14.9% and an inhibition ([6]; Hit Yes) of 43.3%. For the same compound, the inhibition [7] was 83.5%, the inhibition [8] was 53% and the inhibition [9] was 75.9%. For the same compound, the inhibition ([10]; Hit No) was 47.4%.
`Cc1onc(-c2ccc(F)cc2)c1COc1ccc(C(=O)N2CCS(=O)(=O)CC2)cn1` showed an inhibition ([1]; Hit No) of -9.77%, an inhibition ([2]; Hit No) of -7.99% and an inhibition [3] of -9.34%. It also gave an inhibition [4] of 0.685%, an inhibition [5] of -0.327% and an inhibition ([6]; Hit No) of 12.9%. It also gave an inhibition [7] of 32%, an inhibition [8] of 21.2% and an inhibition [9] of 18.2%. The inhibition ([10]; Hit No) was -9.75%.
`Cc1cc(Cn2cnc3c2C[C@@H](C(=O)O)N(C(=O)C(c2ccccc2)c2ccccc2)C3)ccc1N(C)C` gave an inhibition ([1]; Hit No) of 10.3%, an inhibition ([2]; Hit No) of -0.733% and an inhibition [3] of 7.18%. The inhibition [4] was 25.8%, the inhibition [5] was -2.82% and the inhibition ([6]; Hit No) was -6.87%. For the same compound, the inhibition [7] was 20.9%, the inhibition [8] was 46% and the inhibition [9] was 19.4%. It also gave an inhibition ([10]; Hit No) of 5.17%.
`FC(F)(F)Oc1ccc(-c2ccc3nnc(C(F)(F)F)n3c2)cc1` showed an inhibition ([1]; Hit No) of 0.158%, an inhibition ([2]; Hit No) of -5.19% and an inhibition [3] of -3.97%. For the same compound, the inhibition [4] was -4.99%, the inhibition [5] was -4.54% and the inhibition ([6]; Hit No) was 27.8%. For the same compound, the inhibition [7] was -0.755%, the inhibition [8] was 3.41% and the inhibition [9] was 7.52%. The inhibition ([10]; Hit No) was -7.36%.
